Reference: US9963703B2, “Compositions and methods for treating pancreatic cancer” (Autotelic LLC, priority 2016, dated 2018)
In the oligonucleotide strings, read from the 5' end, every base follows the letter of its sugar. An asterisk marks phosphorothioate; unmarked linkages are phosphodiester. Other units and linkages are bracketed, terminal groups are in braces. A string of capitals states the bases alone. d = 2'-deoxy (DNA)

Assays:
[1] = test system: A-172 glioma cells; experiment: Proliferation of A-172 glioma cells; assay type: cell-based
Protocol: (§1) A-172 glioma cells were treated with a combination of AP12009 (trabedersen) 0 to 10 μM) and different concentrations of TMZ (temozolomide) for 7 days (treatment schedule 2*2/1*3 d).
In summary there is no clear beneficial effect in combining AP12009 with TMZ in A-172 cells.

[2] = test system: HUP-T3 pancreatic cancer cells; experiment: Cellular proliferation of HUP-T3 pancreatic cancer cells in vitro
From the text: (§2) The aim of the study was to determine the effect of AP12009 (trabedersen) treatment in combination with 5-Fluorouracil (5-FU) on TGFβ2 secretion and on cellular proliferation of HUP-T3 pancreatic cancer cells and WiDr colon cancer cells in vitro.

[3] = test system: WiDr colon cancer cells; experiment: Cellular proliferation of WiDr colon cancer cells in vitro; assay type: cell-based
From the text: as §2

[4] = test system: TGFβ2; experiment: TGFβ2 secretion/expression in HUP-T3 pancreatic cancer cells; assay type: cell-based
From the text: as §2

[5] = Acute single dose toxicity study in mice; assay type: in vivo; settings: 1 of 10 mice died (LLD10)
Protocol: (§3) The clinical starting dose for the 7-days-on and 7-days-off schedule was based on the Lowest-Observed-Adverse-Effect-Level (LOAEL) devoid of severe toxicity in Cynomolgus monkeys as the most relevant species. This LOAEL of 4 mg/kg body weight (b.w.)/day is equivalent to approximately 1.3 mg/kg b.w./day or 48 mg/m^2/day on a body surface area basis in human adults. These numbers were rounded down and the safe starting dose was defined at 40 mg/m^2/day, equivalent to approximately 1 mg/kg b.w./day in humans. An alternative approach would have been based on the lowest lethal dose (LLD) of 300 mg/kg b.w. obtained in the acute single dose toxicity study in mice (in rats it was determined at 1000 mg/kg), at which 1 of 10 mice died (LLD10). According to the standard method, 10% of this dose (30 mg/kg) on a body surface area basis would then be defined as the clinical starting dose resulting in 90 mg/m^2/day. In the end, the lower of the two alternatives was chosen as starting dose.

[6] = test system: TGFβ2; experiment: TGFβ2 secretion/expression in WiDr colon cancer cells; assay type: cell-based
From the text: as §2

[7] = Acute single dose toxicity in rats; assay type: in vivo
Protocol: as §3

[8] = test system: A-172 glioma cells; experiment: A-172 glioma cells, alternative AP12009/TMZ treatment schedules (readout not stated); assay type: cell-based
Protocol: as §1

[9] = test system: pancreatic cancer; experiment: Phase I/II study P-001, efficacy (PFS, OS) in pancreatic cancer patients; assay type: in vivo, human
Protocol: At screening, up to 10 “measurable lesions” (i.e. lesions that could be accurately measured in at least 1 dimension with a longest diameter of 2 cm) representative of all involved organs were identified as “target lesions” for tumor response assessment and were measured and documented. All other lesions were defined and recorded as “non-target lesions”. Tumor response was determined by the local investigator every 8 weeks after start of the first trabedersen cycle during follow-up visits, irrespective of whether the patient was still on treatment or off treatment. The tumor assessment was based on Response Evaluation Criteria in Solid Tumors (RECIST 1.0) criteria. The categories of overall tumor response are as follows: (1) Complete response (CR): disappearance of all target and non-target lesions and normalization of tumor marker level; (2) Partial response (PR): at least 30% decrease in the sum of the longest diameter (LD) of target lesions (baseline sum LD as reference) and/or persistence of one or more non-target lesions and/or maintenance of tumor marker level above normal limits; (3) Stable disease (SD): less than 30% decrease or less than 20% increase in sum LD target lesions (smallest sum LD since treatment start as reference) and/or persistence of one or more non-target lesions and/or maintenance of tumor marker level above normal limits; (4) Progressive disease (PD) At least 20% increase in sum LD target lesions (smallest sum LD since treatment start as reference) and/or unequivocal progression of existing nontarget lesions and/or appearance of one or more new lesions; and (5) Unknown.
Progression-free survival (PFS) was defined as the time from Day 1 until tumor progression or death from any cause. The date of progression was either the date of the image showing progression or the date of treatment termination in case one of the reasons for treatment termination was tumor progression (referring to clinical progression as assessed by the Investigator), whichever occurred first.
Overall survival (OS) was defined as the time from Day 1 until death from any cause. All patients were followed for survival during the follow-up assessments every 8 weeks. The survival status was documented at the Final Visit (Day 29) and during the 8-weekly post-treatment follow-up assessments, and was continued to be collected after study closure until database lock or until the patient was lost to follow-up.
There were […] line patients and 11 third line and beyond on the 4 days on and 10 days off regimen. The PFS/OS (progression free survival/overall survival ratio) of these second line patients in months were: 1.87/5.60 (N=6), 1.87/9.93 (N=11) and 2.72/11.80 (N=5) at increasing mean dose of 140 mg/m^2/day, 167 mg/m^2/day, and 196 mg/m^2/day, respectively. The OS of 9.93 and 11.80 are higher than the highest reported in the 65 trials reported in the literature during 1997-2015 (range=2.50-9.20/median=5.50). The corresponding PFS values were in line with reported literature (range=0.00-7.65/median=2.43). […] Trabedersen itself was not having an impact on the tumor (FIG. 1).

[10] = Preclinical toxicology, LOAEL in Cynomolgus monkeys; assay type: in vivo
Protocol: as §3

[11] = FIG. 1, trabedersen as second line treatment
[12] = second line pancreatic cancer patients, 4 days on/10 days off, mean dose 140 mg/m^2/day (N=6)
[13] = second line pancreatic cancer patients, 4 days on/10 days off, mean dose 167 mg/m^2/day (N=11)
[14] = second line pancreatic cancer patients, 4 days on/10 days off, mean dose 196 mg/m^2/day (N=5)
[15] = converted from Cynomolgus LOAEL

trabedersen: TGF-beta2 specific phosphorothioate antisense oligodeoxynucleotide with the sequence 5′-CGGCATGTCTATTTTGTA-3′ (SEQ ID No: 1) (antisense dC*dG*dG*dC*dA*dT*dG*dT*dC*dT*dA*dT*dT*dT*dT*dG*dT*dA)
combination effect on cell proliferation ([1]; AP12009 in combination with TMZ): no reproducible beneficial effect
effect on cell proliferation ([1]; monotherapy, 7 days): slightly reduced
effect on proliferation of adding AP12009 to 5-FU compared with 5-FU alone [2]: did not result in any additional inhibition of proliferation
cell proliferation, % of untreated control ([2]; HUP-T3, 10 μM AP12009 monotherapy): 53%
cell proliferation, % of untreated control ([3]; 10 μM AP12009): 76%
combination effect on cell proliferation ([3]; 10 μM AP12009 and 5-FU): sub-additive effects
TGFβ2 expression, % of untreated control ([4]; 10 μM AP12009 monotherapy): 42%
combination effect on inhibition of TGFβ2 expression ([4]; 5-FU added to 10 μM AP12009): sub-additive or even antagonistic effects
lowest lethal dose (LLD) [5]: 300 mg/kg b.w.
TGFβ2 expression, % of untreated control ([6]; 10 μM AP12009): 54%
combination effect on TGFβ2 expression ([6]; 10 μM AP12009 and 5-FU): sub-additive effects
lowest lethal dose (LLD) [7]: 1000 mg/kg
benefit of single TMZ treatment combined with 7 day AP12009 treatment ([8]; TMZ day 0 for one day, AP12009 7 days (2*1/1*2/1*3 d)): did not show any benefit or disadvantage
benefit of pre-treatment with AP12009 ([8]; pre-treatment (1*2/1*3 d) with AP12009 before combined AP12009 and TMZ (2*2/1*3 d)): did not show any benefit
OS ([9]; 4/10 cohort treated with subsequent chemotherapies, p=0.0023, Log-rank): 14.7 mos
OS ([9]; 4/10 cohort without subsequent chemotherapies): 2.93 mos
OS compared to reported median OS [9, 11]: higher than reported in the literature
PFS compared to reported median PFS [9, 11]: not significantly different
effect on the tumor, as indicated by overall survival rate ([9]; FIG. 3, trabedersen alone): does not have a significant effect on the tumor
effect on overall survival rate ([9]; FIG. 3, trabedersen therapy followed by chemotherapy): significant increase in the overall survival rate
OS ([9]; chemotherapy on 2nd line followed by trabedersen 4/10 regimen as third line (N=9), p=0.046 vs trabedersen first): 2.80 mos
OS [9, 12]: 5.60 months
PFS [9, 12]: 1.87 months
OS [9, 13]: 9.93 months
PFS [9, 13]: 1.87 months
OS [9, 14]: 11.80 months
PFS [9, 14]: 2.72 months
OS ([9]; trabedersen on 2nd line followed with subsequent therapies (N=11), p=0.046, Log-rank): 9.93 mos
Lowest-Observed-Adverse-Effect-Level (LOAEL) devoid of severe toxicity ([10]; Cynomolgus monkeys): 4 mg/kg body weight (b.w.)/day
LOAEL, equivalent in human adults [10, 15]: approximately 1.3 mg/kg b.w./day
LOAEL, equivalent in human adults on a body surface area basis [10, 15]: ~48 mg/m^2/day
